Reference: patent US9096559B2, “4-carboxybenzylamino derivatives as histone deacetylase inhibitors” (Merck Sharp & Dohme Corp., priority 2007, dated 2015)

What follows are compounds tested against CYP2C9 (Homo sapiens (Human), UniProt P11712) (assay: CYP inhibition potential, CYP2C9). Conditions: not given.
Type: in vitro ADME
Description: (§1) The ancillary pharmacology profiles of the SHI-1:2 carbamate analogs were also gathered to investigate off-target activities (Table 12).

Sequence of CYP2C9 (P11712 whole entry): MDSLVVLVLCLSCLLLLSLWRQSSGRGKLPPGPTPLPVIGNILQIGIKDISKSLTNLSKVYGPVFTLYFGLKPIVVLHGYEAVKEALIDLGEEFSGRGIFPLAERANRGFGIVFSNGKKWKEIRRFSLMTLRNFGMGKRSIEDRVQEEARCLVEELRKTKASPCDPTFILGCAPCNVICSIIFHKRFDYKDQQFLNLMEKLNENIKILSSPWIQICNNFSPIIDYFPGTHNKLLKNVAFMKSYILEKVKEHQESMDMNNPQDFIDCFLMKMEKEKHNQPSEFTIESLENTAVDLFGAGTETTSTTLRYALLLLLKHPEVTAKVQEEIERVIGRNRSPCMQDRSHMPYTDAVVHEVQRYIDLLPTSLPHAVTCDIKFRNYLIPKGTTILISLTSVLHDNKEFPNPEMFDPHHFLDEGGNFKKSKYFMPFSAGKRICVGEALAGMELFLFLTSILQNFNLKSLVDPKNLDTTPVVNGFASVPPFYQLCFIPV

First: Nc1ccc(-c2ccccc2)cc1NC(=O)c1ccc(CNC(=O)CCc2cccnc2)cc1 [Example 14a]
Second: CCCC(=O)NCc1ccc(C(=O)Nc2cc(-c3ccccc3)ccc2N)cc1 [Example 14g]
The “% CYP Inhibition @ 10 μM 2C9” value of the first is higher: 73% for the first, 27% for the second.

First: Nc1ccc(-c2ccccc2)cc1NC(=O)c1ccc(CNC(=O)OCc2ccccn2)cc1 [Example 14b]
Second: CCOC(=O)NCc1ccc(C(=O)Nc2cc(-c3ccccc3)ccc2N)cc1 [Example 14e]
The “% CYP Inhibition @ 10 μM 2C9” value of the first is higher: 67% for the first, 35% for the second.

Compared with CCC(=O)NCc1ccc(C(=O)Nc2cc(-c3ccccc3)ccc2N)cc1 [Example 14h], Nc1ccc(-c2ccccc2)cc1NC(=O)c1ccc(CNC(=O)C2CCCCC2)cc1 [Example 14i] is higher in “% CYP Inhibition @ 10 μM 2C9” value: 28% for the first, 32% for the second.

What follows are compounds tested against CYP2D6 (Homo sapiens (Human), UniProt P10635) (assay: CYP inhibition potential, CYP2D6). Conditions: not given.
Sequence of CYP2D6 (P10635 whole entry): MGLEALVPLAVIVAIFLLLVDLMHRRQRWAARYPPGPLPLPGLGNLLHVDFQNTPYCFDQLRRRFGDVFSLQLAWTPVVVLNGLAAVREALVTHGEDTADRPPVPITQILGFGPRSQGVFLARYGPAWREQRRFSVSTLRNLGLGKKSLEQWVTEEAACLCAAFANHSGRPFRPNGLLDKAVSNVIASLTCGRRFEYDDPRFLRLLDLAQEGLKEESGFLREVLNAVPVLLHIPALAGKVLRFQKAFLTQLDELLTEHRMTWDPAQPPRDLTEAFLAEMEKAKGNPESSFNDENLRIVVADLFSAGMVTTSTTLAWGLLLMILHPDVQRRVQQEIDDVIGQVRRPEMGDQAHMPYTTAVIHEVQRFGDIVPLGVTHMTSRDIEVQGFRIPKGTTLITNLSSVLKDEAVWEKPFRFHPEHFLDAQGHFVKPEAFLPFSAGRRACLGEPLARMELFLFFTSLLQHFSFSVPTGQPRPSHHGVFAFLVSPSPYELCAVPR
Type: in vitro ADME
Description: as §1

Compared with Nc1ccc(-c2ccccc2)cc1NC(=O)c1ccc(CNC(=O)CCc2cccnc2)cc1 [Example 14a], CCCC(=O)NCc1ccc(C(=O)Nc2cc(-c3ccccc3)ccc2N)cc1 [Example 14g] is higher in “% CYP Inhibition @ 10 μM 2D6” value: 25% for the first, 28% for the second.

Going from Nc1ccc(-c2ccccc2)cc1NC(=O)c1ccc(CNC(=O)OCc2ccccn2)cc1 [Example 14b] to CCOC(=O)NCc1ccc(C(=O)Nc2cc(-c3ccccc3)ccc2N)cc1 [Example 14e], the “% CYP Inhibition @ 10 μM 2D6” value falls from 29% to 26%.

First: CCC(=O)NCc1ccc(C(=O)Nc2cc(-c3ccccc3)ccc2N)cc1 [Example 14h]
Second: Nc1ccc(-c2ccccc2)cc1NC(=O)c1ccc(CNC(=O)C2CCCCC2)cc1 [Example 14i]
The “% CYP Inhibition @ 10 μM 2D6” value of the first is higher: 38% for the first, 17% for the second.

What follows are compounds tested against histone deacetylase, subtype 1 (HDAC1) (Homo sapiens (Human), UniProt Q13547) (assay: HDAC1-Flag in vitro deacetylation assay). Conditions: means of n ≧ 2 experiments; read-out: HDAC1 IC50.
Sequence of histone deacetylase, subtype 1 (HDAC1) (Q13547 whole entry): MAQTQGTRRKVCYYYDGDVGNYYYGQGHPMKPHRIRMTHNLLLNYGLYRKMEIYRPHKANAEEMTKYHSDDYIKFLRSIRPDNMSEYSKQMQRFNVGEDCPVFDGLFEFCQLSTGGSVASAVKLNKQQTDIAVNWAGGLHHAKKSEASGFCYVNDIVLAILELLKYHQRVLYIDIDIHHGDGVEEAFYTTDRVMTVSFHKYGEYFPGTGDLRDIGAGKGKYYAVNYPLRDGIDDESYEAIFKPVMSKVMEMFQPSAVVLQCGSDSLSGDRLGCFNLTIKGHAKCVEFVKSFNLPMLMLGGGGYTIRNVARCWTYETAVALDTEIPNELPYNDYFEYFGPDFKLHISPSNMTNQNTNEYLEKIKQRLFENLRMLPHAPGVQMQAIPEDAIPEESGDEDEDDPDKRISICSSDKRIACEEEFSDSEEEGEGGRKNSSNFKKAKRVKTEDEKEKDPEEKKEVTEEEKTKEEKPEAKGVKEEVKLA
Type: biochemical
Summary of the method: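 Enzyme: Flag epitope-tagged human HDAC1 complex immunopurified from stably expressing mammalian cells. Substrate carries an acetylated lysine side chain; deacetylation yields a fluorophore proportional to activity, measured as fluorescence.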

Nc1ccc(-c2ccccc2)cc1NC(=O)c1ccc(CNC(=O)CCc2cccnc2)cc1 [Example 14a] and CCCC(=O)NCc1ccc(C(=O)Nc2cc(-c3ccccc3)ccc2N)cc1 [Example 14g] are within 1.5-fold of each other in IC50: 11 nM for the first, 10 nM for the second.

Going from Nc1ccc(-c2ccccc2)cc1NC(=O)c1ccc(CNC(=O)OCc2ccccn2)cc1 [Example 14b] to CCOC(=O)NCc1ccc(C(=O)Nc2cc(-c3ccccc3)ccc2N)cc1 [Example 14e], the IC50 rises from 8 nM to 13 nM (1.6-fold).

Going from CCC(=O)NCc1ccc(C(=O)Nc2cc(-c3ccccc3)ccc2N)cc1 [Example 14h] to Nc1ccc(-c2ccccc2)cc1NC(=O)c1ccc(CNC(=O)C2CCCCC2)cc1 [Example 14i], the IC50 rises from 10 nM to 20 nM (2-fold). The first is the more potent here.

Each compound was assayed against CYP3A4 (Homo sapiens (Human), UniProt P08684) (assay: CYP inhibition potential, CYP3A4). Conditions: not given.
Sequence of CYP3A4 (P08684 whole entry): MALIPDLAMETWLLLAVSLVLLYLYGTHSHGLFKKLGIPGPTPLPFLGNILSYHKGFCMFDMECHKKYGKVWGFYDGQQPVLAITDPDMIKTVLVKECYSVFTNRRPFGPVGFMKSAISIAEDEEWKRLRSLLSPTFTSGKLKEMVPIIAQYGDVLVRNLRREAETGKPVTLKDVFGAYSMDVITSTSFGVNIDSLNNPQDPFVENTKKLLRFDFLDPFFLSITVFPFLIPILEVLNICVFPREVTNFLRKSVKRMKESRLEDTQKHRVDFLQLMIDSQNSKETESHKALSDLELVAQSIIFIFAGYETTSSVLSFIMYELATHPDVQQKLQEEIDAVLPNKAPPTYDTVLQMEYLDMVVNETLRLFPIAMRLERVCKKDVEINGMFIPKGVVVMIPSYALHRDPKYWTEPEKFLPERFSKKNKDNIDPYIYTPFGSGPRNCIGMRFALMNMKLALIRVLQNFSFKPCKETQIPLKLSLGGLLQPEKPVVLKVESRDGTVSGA
Type: in vitro ADME
Description: as §1

Going from Nc1ccc(-c2ccccc2)cc1NC(=O)c1ccc(CNC(=O)CCc2cccnc2)cc1 [Example 14a] to CCCC(=O)NCc1ccc(C(=O)Nc2cc(-c3ccccc3)ccc2N)cc1 [Example 14g], the “% CYP Inhibition @ 10 μM 3A4” value falls from 65% to 33%.

Going from Nc1ccc(-c2ccccc2)cc1NC(=O)c1ccc(CNC(=O)OCc2ccccn2)cc1 [Example 14b] to CCOC(=O)NCc1ccc(C(=O)Nc2cc(-c3ccccc3)ccc2N)cc1 [Example 14e], the “% CYP Inhibition @ 10 μM 3A4” value falls from 38% to 22%.

Compared with CCC(=O)NCc1ccc(C(=O)Nc2cc(-c3ccccc3)ccc2N)cc1 [Example 14h], Nc1ccc(-c2ccccc2)cc1NC(=O)c1ccc(CNC(=O)C2CCCCC2)cc1 [Example 14i] is lower in “% CYP Inhibition @ 10 μM 3A4” value: 30% for the first, 12% for the second.

What follows are compounds tested against IKr ion channel (Homo sapiens (Human), UniProt Q12809) (assay: Displacement binding assay using radio-labeled MK-499). Conditions: not given.
Sequence of IKr ion channel (Q12809 whole entry): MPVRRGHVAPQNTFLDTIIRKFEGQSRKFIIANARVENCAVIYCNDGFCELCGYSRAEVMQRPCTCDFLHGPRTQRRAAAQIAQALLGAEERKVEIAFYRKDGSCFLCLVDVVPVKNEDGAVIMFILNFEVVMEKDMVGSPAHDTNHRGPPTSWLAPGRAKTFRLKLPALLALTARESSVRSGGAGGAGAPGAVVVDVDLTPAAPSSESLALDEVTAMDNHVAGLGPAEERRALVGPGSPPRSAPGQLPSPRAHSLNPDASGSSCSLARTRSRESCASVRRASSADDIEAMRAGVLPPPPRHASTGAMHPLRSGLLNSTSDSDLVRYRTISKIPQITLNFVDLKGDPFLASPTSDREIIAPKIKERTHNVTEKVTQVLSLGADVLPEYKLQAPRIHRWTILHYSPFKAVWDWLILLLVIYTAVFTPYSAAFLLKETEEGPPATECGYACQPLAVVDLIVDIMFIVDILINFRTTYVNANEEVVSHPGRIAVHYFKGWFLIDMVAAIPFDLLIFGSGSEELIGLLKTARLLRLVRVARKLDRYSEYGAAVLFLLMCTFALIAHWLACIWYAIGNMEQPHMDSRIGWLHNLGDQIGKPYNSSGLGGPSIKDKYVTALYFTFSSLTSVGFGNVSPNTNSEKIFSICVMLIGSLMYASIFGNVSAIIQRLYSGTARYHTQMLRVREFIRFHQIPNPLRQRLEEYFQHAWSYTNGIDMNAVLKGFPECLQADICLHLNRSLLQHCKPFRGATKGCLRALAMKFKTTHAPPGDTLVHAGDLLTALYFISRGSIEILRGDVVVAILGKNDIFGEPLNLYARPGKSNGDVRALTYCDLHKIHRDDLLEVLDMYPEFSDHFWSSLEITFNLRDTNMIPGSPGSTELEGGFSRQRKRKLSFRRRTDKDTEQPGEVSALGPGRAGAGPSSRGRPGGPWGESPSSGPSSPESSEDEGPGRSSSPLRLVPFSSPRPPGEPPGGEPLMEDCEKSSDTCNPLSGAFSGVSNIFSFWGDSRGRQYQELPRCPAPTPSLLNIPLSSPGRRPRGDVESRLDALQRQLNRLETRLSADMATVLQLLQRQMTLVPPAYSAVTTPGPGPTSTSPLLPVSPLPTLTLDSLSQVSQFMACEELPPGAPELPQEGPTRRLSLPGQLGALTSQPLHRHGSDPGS
Description: as §1

Nc1ccc(-c2ccccc2)cc1NC(=O)c1ccc(CNC(=O)CCc2cccnc2)cc1 [Example 14a] was tested, and the IC50 was 3700 nM.

Same assay, conditions: 10 μM

First: Nc1ccc(-c2ccccc2)cc1NC(=O)c1ccc(CNC(=O)OCc2ccccn2)cc1 [Example 14b]
Second: CCOC(=O)NCc1ccc(C(=O)Nc2cc(-c3ccccc3)ccc2N)cc1 [Example 14e]
The “% MK-499 Binding Inhibition @ 10 μM” value of the first is higher: 51% for the first, 40% for the second.

Compared with CCCC(=O)NCc1ccc(C(=O)Nc2cc(-c3ccccc3)ccc2N)cc1 [Example 14g], CCC(=O)NCc1ccc(C(=O)Nc2cc(-c3ccccc3)ccc2N)cc1 [Example 14h] is lower in “% MK-499 Binding Inhibition @ 10 μM” value: 38% for the first, 24% for the second.

In the case of Nc1ccc(-c2ccccc2)cc1NC(=O)c1ccc(CNC(=O)C2CCCCC2)cc1 [Example 14i], the “% MK-499 Binding Inhibition @ 10 μM” value is reported as 30%.

The compounds below were run on HCT-116 (assay: HCT-116 anti-proliferation (GI50)). Conditions: means of n ≧ 2 experiments.
Type: cell-based, human
Protocol: The novel compounds of the present invention were tested for their ability to inhibit proliferation of the human cervical cancer (HeLa) and colon carcinoma (HCT116) cells.
In this assay, also referred to as the Vialight Assay, cellular ATP levels are measured as a means of quantifying cellular proliferation. This assay makes use of a bioluminescent method from Cambrex (ViaLight PLUS, cat. #LT07-121). In the presence of ATP, luciferase converts luciferin to oxyluciferin and light. The amount of light produced (emission at 565 nm) is measured and correlates with a relative amount of proliferation. Human cervical cancer (HeLa) or colon carcinoma (HCT116) cells were incubated with vehicle or increasing concentrations of compound for 48, 72 or 96 hours. Cell proliferation was quantified by adding the cell lysis reagent (provided in the Vialight assay kit) directly to culture wells, followed by addition of the ATP-monitoring reagent (containing luciferase/luciferin). The amount of light produced is then measured (emission at 565 nm). The quantity of light produced, as measured by […], is directly proportional to the number of living cells in culture. […]

First: Nc1ccc(-c2ccccc2)cc1NC(=O)c1ccc(CNC(=O)CCc2cccnc2)cc1 [Example 14a]
Second: CCCC(=O)NCc1ccc(C(=O)Nc2cc(-c3ccccc3)ccc2N)cc1 [Example 14g]
The GI50 of the first is 1.5-fold higher: 337 nM for the first, 220 nM for the second.

Going from Nc1ccc(-c2ccccc2)cc1NC(=O)c1ccc(CNC(=O)OCc2ccccn2)cc1 [Example 14b] to CCOC(=O)NCc1ccc(C(=O)Nc2cc(-c3ccccc3)ccc2N)cc1 [Example 14e], the GI50 falls from 435 nM to 230 nM (1.9-fold).

Compared with CCC(=O)NCc1ccc(C(=O)Nc2cc(-c3ccccc3)ccc2N)cc1 [Example 14h], Nc1ccc(-c2ccccc2)cc1NC(=O)c1ccc(CNC(=O)C2CCCCC2)cc1 [Example 14i] is 2.2-fold higher in GI50: 150 nM for the first, 335 nM for the second.
